Measurements as given in article PMC7816196, “Antitubercular 2-Pyrazolylpyrimidinones: Structure–Activity Relationship and Mode-of-Action Studies” (Journal of Medicinal Chemistry, 2021).
≈ marks a conversion by molar mass, not a printed value.

Columns and labels:
[1] = tested on: Mtb H37Rv; test: MIC against Mtb H37Rv, Alamar Blue broth microdilution; assay type: cell-based, Mycobacterium tuberculosis; details: Mycobacterium tuberculosis, H37RV, antitubercular activity of the initial hits; medium not stated
[2] = tested on: Rv3247c hypomorph; test: MIC against thymidylate kinase hypomorph; assay type: cell-based, Mycobacterium tuberculosis
Source text: Based on the structural similarity of the compounds with the published thymidylate kinase inhibitors,[39],[40] we asked whether this compound series can inhibit Mtb thymidylate kinase, which is an essential target encoded by Rv3247c. To investigate this, we tested the activity of the compounds 1, 2, and 12 against the Rv3247c hypomorph.

[3] = tested on: mmpL3-TetON; test: microbe, parasite or virus in culture; assay type: cell-based, M. tuberculosis
[4] = tested on: SAWC3906; assay type: cell-based; details: atypic Beijing
[5] = tested on: SAWC1125; test: microbe, parasite or virus in culture; assay type: cell-based; details: Mycobacterium tuberculosis, 336 h; typical Beijing; day 14
[6] = tested on: H37Rv; test: microbe, parasite or virus in culture; assay type: cell-based; details: Mycobacterium tuberculosis, 336 h, 7H9 medium, day 14
[7] = tested on: SAWC3385; assay type: cell-based; details: Cas 1/Delhi
[8] = tested on: SAWC3200; test: microbe, parasite or virus in culture; assay type: cell-based; details: Mycobacterium tuberculosis, 336 h; X1; day 14
[9] = tested on: SAWC3933; assay type: cell-based; details: T1
[10] = tested on: SAWC2371; test: microbe, parasite or virus in culture; assay type: cell-based; details: Mycobacterium tuberculosis, 336 h; Haarlem; day 14
[11] = tested on: SAWC4046; assay type: cell-based; details: Haarlem-like
[12] = tested on: SAWC3388; assay type: cell-based; details: T1, Tuscany, T5/Rus

## Cc1ccc(Nc2cc(C)nn2-c2nc(C)cc(O)n2)cc1 [Compound 2, 6-Methyl-2-(3-methyl-5-(p-tolylamino)-1H-pyrazol-1-yl)pyrimidin-4(3H)-one]
[1]
  MIC: < 2 µM
[2]
  MIC modulation upon silencing of Rv3247c: did not observe any MIC modulation
[3]
  change in MIC on transcriptional silencing of mmpL3: no significant change

## CC(=O)Nc1cc(C)nn1-c1nc(-c2ccccc2)cc(=O)[nH]1 [Compound 15, N-(3-Methyl-1-(4-oxo-6-phenyl-1,4-dihydropyrimidin-2-yl)-1H-pyrazol-5-yl)acetamide]
[4]
  MIC99 day 14, SAWC3906: 2 µM (≈ 0.619 µg/mL)
[5]
  MIC99: 8 to 16 µM (≈ 2.47 to 4.95 µg/mL)
[6]
  MIC99: 4 to 8 µM (≈ 1.24 to 2.47 µg/mL)
[7]
  MIC99 day 14, SAWC3385: 2 µM (≈ 0.619 µg/mL)
[8]
  MIC99: 1 µM (≈ 0.309 µg/mL)
[9]
  MIC99 day 14, SAWC3933: 8 µM (≈ 2.47 µg/mL)
[3]
  change in MIC on transcriptional silencing of mmpL3: no significant change

## Cc1cc(C)n(-c2nc(-c3ccncc3)cc(=O)[nH]2)n1 [Compound 20, 2-(3,5-Dimethyl-1H-pyrazol-1-yl)-6-(pyridin-4-yl)pyrimidin-4(3H)-one]
[4]
  MIC99 day 14, SAWC3906: 2 µM (≈ 0.535 µg/mL)
[10]
  MIC99: 2 to 4 µM (≈ 0.535 to 1.07 µg/mL)
[5]
  MIC99: 32 µM (≈ 8.55 µg/mL)
[11]
  MIC99 day 14, SAWC4046: 2 to 4 µM
[6]
  MIC99: 4 to 8 µM (≈ 1.07 to 2.14 µg/mL)
[12]
  MIC99 day 14, SAWC3388: 4 to 8 µM
[7]
  MIC99 day 14, SAWC3385: 2 to 4 µM
[8]
  MIC99: 1 to 2 µM (≈ 0.267 to 0.535 µg/mL)
[9]
  MIC99 day 14, SAWC3933: 16 µM (≈ 4.28 µg/mL)
